US5157052A, “Method for inhibiting IgE production” (priority 1990, dated 1992)

What was measured:
IgE [1] = experiment: Serum IgE response induced by FF1-4D5 + H∂A1 anti-IgD antibodies (ELISA, Assay A / Assay F); format: in vivo, mouse (Balb/c female); conditions: 20 μg days 3 and 4
How it was run: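 Transient IgE response induced in female Balb/c mice (10–20 weeks) by a day-0 i.v. or s.c. injection of 100 μg each of anti-IgD FF1-4D5 and H.δA1. Serum IgE measured by sandwich ELISA (B1E3 capture, biotinylated R1E4 detection, avidin-biotin-HRP/ABTS), quantified against an IgE standard curve corrected for serum dilution.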

IgG3 = experiment: Serum IgG3 in anti-IgD stimulated mice (two site sandwich ELISA, Assay D); format: in vivo, mouse (Balb/c female); conditions: 20 μg days 3 and 4
IgE [2] = experiment: ED50 for inhibition of IgE calculated from the examples; format: in vivo, mouse; conditions: dose to achieve 50% inhibition of IgE
Method: From the data in the above examples, the effective dose of each prostaglandin to achieve 50% inhibition of IgE (ED50) was calculated.

[3] = Diarrheal effects in rats; conditions: rat, in vivo, po

## CCCCC(C)(O)C/C=C/[C@H]1[C@H](O)CC(=O)[C@@H]1C/C=C\C=CCC(=O)OC (relative stereo) [(±) methyl 11α,16-dihydroxy-16-methyl-9-oxoprosta-3,5Z,13-trien-1-oate]
IgE [1]; Example 25
  de novo IgE synthesis: inhibit de novo IgE synthesis
IgE [1]; Table 14, day 8 (control 6071)
  IgE ± SD: 1176 ± 137 ng/mL
IgG3; Example 25
  inhibition of IgG3: not IgG1, IgG2a, IgG3 and IgM
IgG3; Table 14, day 8 (control 1538)
  IgG3 ± SD: 1709 ± 429 µg/mL
IgE [2]
  ED50 IgE Inhibition: 6.5 μg/mouse/TID
[3]
  TD50 at 8 h: 0.57 mg/kg
